# Patent US5075327A, “Antipsoriatic agents” (Hoffmann-La Roche Inc., priority 1988, dated 1991)
# Where two headings read alike, the source gives them in different places.
# How the values were obtained:
# [1] = system: cholesterol biosynthesis in HepG2 cells; test: Inhibition of cholesterol biosynthesis in HepG2 cells (3H2O incorporation into cholesterol); assay type: cell-based; settings: for IC50: Homo sapiens
# Description: HepG2 cells are maintained in 175 cm^2 T flasks in Darlington Medium supplemented with 10% fetal bovine serum (FBS). Darlington Medium consists of 3 parts Minimal Essential Medium, 1 part Waymouth's MAB87/3 medium and 3×10^-8 M sodium selenite. This medium is supplemented with 100 U/ml penicillin, 100 ug/ml streptomycin and 2.5 ug/ml Fungizone. In order to establish optimal conditions for the whole cell cholesterol biosynthesis assay, preliminary experiments were performed. 0.25, 0.5, 0.75 or 1×10^6 cells were seeded into 6 well cluster plates in 2 ml of fully supplemented Darlington Medium. The serum supplemented medium was aspirated after 72 hours and replaced with serum free Darlington Medium with antibiotics. After 24, 48 or 72 hours serum free, the cells received either 0.5 or 1 mCi ^3 H2 O/ml medium. This medium was aspirated after 24 hours and the cells were washed twice with phosphate buffered saline. The cells were frozen overnight at -20° C. after which they were harvested from the wells with 1 ml of trypsin-EDTA. Extracted lipids were separated on an HPLC system; cholesterol peaks were collected and counted in a scintillation counter. Results are expressed as the dpm ^3 H2 O incorporated into cholesterol.
# In the screening assay the cells received compounds at various concentrations concommitantly with ^3 H2 O. When ethanol was the vehicle, the final ethanol concentration was 0.5%, and control wells with that concentration of ethanol were used in each experiment. Results are expressed as the percent dpm ^3 H2 O incorporated into cholesterol in treated vs control wells. IC50 values are calculated using a linear regression analysis.
# human keratinocyte cells = test: Toxicity to keratinocytes in the proliferation assay; assay type: cell-based; settings: 10^-6 M; keratinocyte cells in vitro
# human keratinocytes = test: Inhibition of proliferation of cultured human keratinocytes (cell count by Coulter Counter); assay type: cell-based; settings: for inhibition at 1 µM / inhibition at 0.1 µM / inhibition at 0.01 µM: Homo sapiens, Keratinocyte; for inhibition at 1 µM: 10^-6 M; for inhibition at 0.1 µM: 10^-7 M; for inhibition at 0.01 µM: 10^-8 M; for Percent Inhibition on Keratinocyte Proliferation: ^ 10^-10 M
# Description: Human neonatal foreskins were collected by circumcision and placed into tubes containing DMEM media. Upon arrival at the laboratory the foreskins were mechanically trimmed of excess dermis and treated with a solution of trypsin/EDTA (0.05%/0.02%) at 4° C. overnight. The epidermis was stripped from the dermis, agitated in buffered saline to remove basal keratinocytes and the stratum corneum buffer was removed. The separated cells were centrifuged, resuspended in media, counted and the cells were plated onto a plain plastic material layer.
# The keratinocytes were plated at a density of approximately about 10^5 cells/cm^2 in 35 cm^2 dishes. The cells were grown in keratinocyte growth media (KGM-modified MCDB 153 containing […] by Clonetics of Boulder, Colo.) according to protocols originally developed by Boyce, S. T. and Ham, R. G., J. of Tissue Culture Meth. 9:83-93 (1985). The cells were grown for 5-10 days and changed every 2-3 days with keratinocyte growth media with 1.5 mM CaCl2 (hereinafter KGM/1.5 mM CaCl2) until cells reached a 75% confluency by visual observation. All the cultures were incubated in a humidified atmosphere of 5% CO2 at 37° C.
# To establish keratinocyte cell cultures as antiproliferative assays, cells prepared as described in the foregoing were washed with PBS and removed from the culture surface with a solution of trypsin/EDTA (0.25%/0.03%). The removed cells were then centrifuged resuspended in the KGM/1.5 mM CaCl2 and counted. The cells were then distributed to 6 well plates at 100,000 cells per well as described in the foregoing. […] After 24-48 hours the cells were changed into KGM/1.5 mM CaCl2. Test compounds were added one to two days later and the cultures maintained for seven days. The media was changed every 2-3 days.
# Solutions of the test compounds were prepared as follows: 1 milligram quantities were received in amber glass vials, and stored at -20° C. Sufficient 100% ethanol was added directly to vials to obtain a millimolar solution that was subsequently aliquoted into small amber vials, overlayed with argon gas and stored at -20° C. Each stock solution was thawed once, used and discarded. Aliquots from the stock solutions were diluted directly into medium and then serially diluted from micromolar to 10^-12 M concentrations. Dilutions from 10^-8 M to 10^-12 M had ethanol added for a final concentration of 0.1%. Stock solutions were used within one month. Control cultures were treated with 0.1% ethanol.
# For each experiment every culture well received the same number of cells from the same culture source. At the termination of the experiment the number of cells per was determined by the following procedure. Wells were washed twice with PBS and then incubated for approximately 10-20 minutes at 37° C. with a trypsin/EDTA solution (0.25%/0.03%). PBS plus 0.1% […] was added and the cells were suspended. An aliquot of the cells was placed into isotonic buffered saline and counted on an electronic particle counter (e.g. Coulter Counter® device by Coulter Electronics of Hialeah, Fla.).
# For statistical analysis, the mean was calculated for all wells in each treatment group. Standard error was determined by nonbiased analysis using a value for the number of wells in each group, preferably N=3.
# Quantification of proliferation was done by enumerating the number of keratinocyte cells in each well using the Coulter Counter®. Results shown in Table 1 below show the percent reduction or inhibition of keratinocyte cells calculated for each of 4 concentrations of the compounds tested according to the formula: [formula]
# Each compound was tested in triplicate. The control (ETOH), as noted above, was 0.1% ethanol.
# cholesterol biosynthesis = settings: U.S. Pat. No. 4,450,171, col. 1, lines 43-51; cited from earlier work
# [2] = 168 h, 7 days, N = 3, read-out: Percent Inhibition on Keratinocyte Proliferation
structure (smiles),measurement,setting,value
"CC[C@H](C)C(=O)O[C@H]1CCC=C2C=CC[C@H](CC[C@@H]3C[C@@H](O)CC(=O)O3)[C@]21C [Compound A, [4R-(4α,6β),6[1S-[1α,8β(S), 8aα]]]-6-[2-[1,2,6,7,8,8a-hexahydro-8a-methyl-8-(2-methyl-1-oxo-butoxy)-1-naphthalenyl]-ethyl]tetrahydro-4-hydroxy-2H-pyran-2-one]",cholesterol biosynthesis inhibition as compared to mevinolin,"[1]; HepG2 cells, Tests I and II",exhibited cholesterol biosynthesis inhibition
same,IC50,"[1]; HepG2, Test I",0.047 µM
same,IC50,"[1]; HepG2, Test II",3.81 µM
same,toxicity to the cells,human keratinocyte cells,without toxicity to the cells
same,inhibition at 1 µM,human keratinocytes; [2],17.1%
same,inhibition at 0.1 µM,human keratinocytes; [2],10%
same,inhibition at 0.01 µM,human keratinocytes; [2],8.24%
same,inhibition at 1 µM,human keratinocytes; read-out: inhibition rate of proliferation of keratinocyte cells,~20%
same,Percent Inhibition on Keratinocyte Proliferation,"human keratinocytes; 7 days, N = 3",20.98%
"CC(=O)O[C@H]1CCCC2=CCC[C@H](CCC=O)[C@]21C [Compound B, [1S-(1α,8β,8aβ)]-8-(2-formylethyl)-8a-methyl-1,2,3,4,6,7,8,8a-octahydro-1-naphthalenol-acetate]",inhibition at 1 µM,human keratinocytes; [2],19.5%
same,inhibition at 0.1 µM,human keratinocytes; [2],31.4%
same,inhibition at 0.01 µM,human keratinocytes; [2],22.9%
same,Percent Inhibition on Keratinocyte Proliferation,"human keratinocytes; 7 days, N = 3",4.52%
same,inhibition of cell proliferation relative to compound A,human keratinocytes; conclusion in words,slightly greater rate than compound A
"CCC(C)C(=O)OC1CC(C)C=C2C=CC(C)C(CCC3CC(O)CC(=O)O3)C21 (centres unmarked) [mevinolin, reference compound]",IC50,"[1]; HepG2, Test I",0.02 µM
same,IC50,"[1]; HepG2, Test II",0.64 µM
same,activity in inhibiting cholesterol biosynthesis among the natural mevinolin compounds,cholesterol biosynthesis,most active member
